# Read-outs that look alike come from different tables or passages of the source.
# What was measured:
# [1] = tested on: T1, hERG potassium channel; test: Eurofins Cerep44 off-target panel; settings: human; 10 μM compound; >50% considered significant; read-out: effect on potassium channel hERG in Cerep screen (% inhibition of binding)
# T1 construct: purchased Eurofins Cerep44 panel
# Procedure: Compound binding was calculated as a % inhibition of the binding of a radioactively labeled ligand specific for each target. Compound enzyme inhibition effect was calculated as a % inhibition of control enzyme activity.
# [2] = tested on: HL-60 human acute promyelocytic leukemia (AML) cells; test: Human HL-60 AML mouse xenograft model; type: in vivo; settings: HL-60 AML xenograft, NOD/SCID mice, 1.3 mg/kg sc once a week
# Procedure: All the animal experiments were conducted following Association for Assessment and Accreditation of Laboratory Animal Care (AAALAC)‘s guideline. The animal protocols were approved by the Institutional Animal Care and Use Committee (IACUC). Cell lines were purchased from credible vendors including ATCC. After tumor cell inoculation, the animals were checked daily for morbidity and mortality. At the time of routine monitoring, the animals were checked for any effects of tumor growth and treatment on the animals’ well-being such as mobility, food and water consumption, body weight gain/loss, matting and any other abnormalities. Clinical observations were recorded. Tumor volumes were measured twice a week in two dimensions using a caliper and the volume was expressed in mm^3 using the formula: V = 0.5 a × b^2 where a and b are the long and short diameters of the tumor, respectively. The procedures of dosing as well as tumor and body weight measurement were conducted in a laminar flow cabinet.
# For HL-60 experiment, HL-60 human acute promyelocytic leukemia (AML) cells were cultured in vitro in suspension in RPMI1640 medium supplemented with 10% fetal bovine serum and 1% penicillin/streptomycin at 37°C in an atmosphere of 5% CO2 in air. The tumor cells were routinely passaged twice per week. The cells growing in the exponential growth phase were harvested and counted for tumor inoculation. […]
# [3] = tested on: human peripheral blood mononuclear cells (PBMCs); test: Ex vivo human PBMC cytokine induction assay; type: cell-based; settings: 24 h
# Procedure: Briefly, PBMCs were isolated from fresh human blood (Chempartner, Shanghai, China). 2 × 10^5/100 μL/well hPBMCs were plated on 96-well cell culture plates. Serial dilutions of compounds with concentration range from 2 nM to 30 μM were added in duplicate wells. LPS was included as a control. The plate was incubated in a 37°C, 5% CO2 incubator for 24 h. The supernatant was harvested for cytokine detection using MILLIPLEX MAP Human Cytokine/Chemokine Magnetic Bead Panel - Immunology Multiplex Assay (Millipore) following the manufacturer’s protocol. Cytokines including TNF-α, IFN-α2, IL-1α, IL-1β, IL-6, IL-8, IL-10, IL-12p40, IL-12p70, MIP-1α, MIP-1β, G-CSF and IFN-γ were measured.
smiles,measurement,setting,value
"CCCN(CCC)C(=O)C1=Cc2ccc(-c3ccc(C(=O)N4CCCC4)cc3)cc2N=C(N)C1 [Motolimod, motolimod]",inhibition at 10 µM,[1],59.2%
same,tumor growth inhibition (TGI) rate,[2],17%
same,EC50,"[3]; Donor 1, 24 h, read-out: EC50 G-CSF induction",841 nM
same,EC50,"[3]; Donor 1, 24 h, read-out: EC50 IFN-α2 induction",1330 nM
same,EC50,"[3]; Donor 1, 24 h, read-out: EC50 IFN-γ induction",4160 nM
same,EC50,"[3]; Donor 1, 24 h, read-out: EC50 IL-1α induction",849 nM
same,EC50,"[3]; Donor 1, 24 h, read-out: EC50 IL-1β induction",665 nM
same,EC50,"[3]; Donor 1, 24 h, read-out: EC50 IL-6 induction",424 nM
same,EC50,"[3]; Donor 1, 24 h, read-out: EC50 IL-8 induction",504 nM
same,EC50,"[3]; Donor 1, 24 h, read-out: EC50 IL-10 induction",304 nM
same,EC50,"[3]; Donor 1, 24 h, read-out: EC50 IL-12(p40) induction",447 nM
same,EC50,"[3]; Donor 1, 24 h, read-out: EC50 IL-12(p70) induction",285 nM
same,EC50,"[3]; Donor 1, 24 h, read-out: EC50 MIP-1α induction",277 nM
same,EC50,"[3]; Donor 1, 24 h, read-out: EC50 MIP-1β induction",277 nM
same,EC50,"[3]; Donor 1, 24 h, read-out: EC50 TNF-α induction",321 nM
same,EC50,"[3]; Donor 2, 24 h, read-out: EC50 G-CSF induction",461 nM
same,EC50,"[3]; Donor 2, 24 h, read-out: EC50 IFN-α2 induction",344 nM
same,EC50,"[3]; Donor 2, 24 h, read-out: EC50 IFN-γ induction",1660 nM
same,EC50,"[3]; Donor 2, 24 h, read-out: EC50 IL-1α induction",348 nM
same,EC50,"[3]; Donor 2, 24 h, read-out: EC50 IL-1β induction",556 nM
same,EC50,"[3]; Donor 2, 24 h, read-out: EC50 IL-6 induction",439 nM
same,EC50,"[3]; Donor 2, 24 h, read-out: EC50 IL-8 induction",502 nM
same,EC50,"[3]; Donor 2, 24 h, read-out: EC50 IL-10 induction",191 nM
same,EC50,"[3]; Donor 2, 24 h, read-out: EC50 IL-12(p40) induction",344 nM
same,EC50,"[3]; Donor 2, 24 h, read-out: EC50 IL-12(p70) induction",> 30000 nM
same,EC50,"[3]; Donor 2, 24 h, read-out: EC50 MIP-1α induction",208 nM
same,EC50,"[3]; Donor 2, 24 h, read-out: EC50 MIP-1β induction",248 nM
same,EC50,"[3]; Donor 2, 24 h, read-out: EC50 TNF-α induction",317 nM

# Reference: article PMC8607422, “Development of a novel TLR8 agonist for cancer immunotherapy” (Molecular Biomedicine, 2020)
